Experimental data reported in US20240271226A1, “METHODS OF PATHOGEN IDENTIFICATION AND ANTIMICROBIAL SUSCEPTIBILITY TESTING” (priority 2020, published 2024).
“And” between values parts separate entries of the source, which are not always exact repeats. Equal entries are not always repeated. {FAM-O} = FAM dye attached through an O linker at the PNA N-terminus; {IABk} = Iowa Black quencher

Columns and labels:
[1] = tested on: multi-drug resistant strain of E. coli (ATCC BAA 2471); conditions: cited from earlier work
uropathogenic E. coli = conditions: Baltimore, USA; cited from earlier work
[2] = tested on: E. coli ATCC 25922 16S rRNA; experiment: Bulk PNA probe hybridization assay in urine, LIF detection; format: binding; conditions: ~10^9 CFU/mL E. coli ATCC 25922 spiked in urine; 2 min 95° C. lysis, 30 min 60° C. hybridization
Source text: (§1) PNA probes were designed to target specific regions in the 16S rRNA for organisms belonging to the Enterobacterales (EB) order, the E. coli and P. mirabilis species (EC and PM), and the eubacterial kingdom (UNI), based on previous work (52, 72) (Table 1). The EB, EC, and PM probes were labeled with a FAM fluorophore, whereas the universal probe was labeled with an Alexa546 fluorophore. For each PNA probe, a short complementary DNA quencher was designed labeled with an Iowa Black® dark quencher. All probes were synthesized by PNA Bio (Newbury Park, CA), and all DNA quencher strands were synthesized by Integrated DNA Technologies (San Diego, CA). Probes and quenchers were stored in a custom hybridization buffer consisting of 50 mM NaCl, 25 mM Tris-HCl pH 8.0, and 0.5% polyvinylpyrrolidone (PVP) at −20° C. PVP is included to reduce the likelihood of probes being adsorbed to or retained by the walls of the PDMS devices. Prior to each experiment, individual aliquots of PNA probes were first thawed at 60° C. for 10 min to ensure full dissolution of the PNA stock into the hybridization buffer. For both bulk-based and droplet experiments, 200 nM PNA probes were mixed with 600 nM of the corresponding quencher in the custom hybridization buffer, and this solution was either mixed in bulk or co-encapsulated into droplets at a 1:1 ratio along with bacteria-containing urine and/or MH suspensions. An appropriate dosage of antibiotics was included in this mixture if required for the experiment.
(§2) We first verified that the probes can specifically detect target bacteria spiked into urine. […] We spiked ˜10^9 CFU/mL (equivalent to 1 cell in a ˜1 pL droplet) of standard reference strains of E. coli ATCC 25922, P. mirabilis ATCC 12453, K. pneumoniae ATCC BAA 1705, and P. aeruginosa ATCC 27853 into a mixture of culture-negative (i.e., blank) urine samples and hybridization buffer with each PNA probe. Each sample was subjected to 2 min of thermal lysis at 95° C. and 30 min of hybridization at 60° C., and then detected at room temperature within a 10 μm-wide microfluidic detection channel by our 2-color LIF detector (FIG. 6).

[3] = Tm of designed PNA probes; format: physicochemical
Source text: as §1, with “An appropriate dosage of antibiotics was included in this mixture if required for the experiment.” left out

[4] = tested on: K. pneumoniae ATCC BAA 1705 16S rRNA; experiment: Bulk PNA probe hybridization assay in urine, LIF detection; format: binding; conditions: ~10^9 CFU/mL K. pneumoniae ATCC BAA 1705 spiked in urine; 2 min 95° C. lysis, 30 min 60° C. hybridization
Source text: as §1, §2

[5] = tested on: P. mirabilis ATCC 12453 16S rRNA; experiment: as above; format: binding; conditions: ~10^9 CFU/mL P. mirabilis ATCC 12453 spiked in urine; 2 min 95° C. lysis, 30 min 60° C. hybridization
Source text: as §1, §2

[6] = tested on: P. aeruginosa ATCC 27853 16S rRNA; experiment: as above; format: binding; conditions: ~10^9 CFU/mL P. aeruginosa ATCC 27853 spiked in urine; 2 min 95° C. lysis, 30 min 60° C. hybridization
Source text: as §1, §2

[7] = tested on: multi-drug resistant E. coli; experiment: In-droplet single-cell 16S rRNA AST in spiked urine; format: cell-based; conditions: gentamicin 8 μg/mL, urine with 2×MH broth, 37° C. for 30, 15, 10 or 5 min
Protocol: We next sought to minimize the culture/antibiotic exposure time for assessing antimicrobial susceptibility in urine. We separately digitized reference and multi-drug resistant E. coli-spiked urine samples, each along with 2×MH broth and EC PNA probes in droplets without and with gentamicin (bactericidal concentration of 8 μg/mL). Each gentamicin-free and gentamicin-dosed droplet group pair was then incubated at 37° C. for 30, 15, 10, or 5 min, followed by lysis, hybridization, and LIF detection (FIG. 13B). Longer bacterial culture result in higher production of 16S rRNA in gentamicin-free bacterial cells and therefore increased positive droplet frequencies. […] The effect of gentamicin on the two strains can be differentiated after as short as 10 min culture/antibiotic exposure, the minimum time at which there is no overlap between the error envelopes around the normalized positive droplet populations. […] As a result, we achieve assessment of antimicrobial susceptibility faster than the average replication time of an E. coli cell, a feat that ultimately paves the way for integrating molecular ID and AST to well under 30 min.
Finally, we investigated the utility of our single-cell 16S rRNA-based phenomolecular AST approach against 3 clinically important antibiotics. […]. […]

E. coli cells = experiment: In-droplet single-cell 16S rRNA AST in MH broth; format: cell-based
Source text: A custom MATLAB program was developed for analyzing the raw fluorescence intensity data acquired from the APD. From the fluorescence intensity time trace of each experimental run, the program looks for individual droplets by quantifying peak widths and peak heights. Once droplet position and fluorescence intensity were identified for all droplets in a sample, the intensities were plotted as a histogram with ˜150 bins. Resulting histograms typically follow a bimodal distribution, and in order to classify the respective subpopulations, the first droplet histogram peak (“empty droplets”) were fitted with a Gaussian curve. Based on the fitted curve, the mean intensity of the empty droplet population as well as the standard deviation were calculated. All droplets whose intensities were 5 standard deviations above the empty droplet mean intensity were counted as bacteria-containing “positive droplets.” Signal to background ratios were calculated by dividing the mean intensity of positive droplets by the mean intensity of empty droplets.
We first co-encapsulated the EC probe and E. coli cells, which were spiked into Mueller-Hinton broth (MH), into picoliter droplets. […]

[8] = tested on: reference E. coli ATCC 25922; experiment: Bulk pheno-molecular AST by 16S rRNA hybridization detection; format: cell-based
Source text: (§3) We note that we can achieve preliminary pheno-molecular AST by directly detecting PNA-to-16S rRNA hybridization in the bulk format via the LIF detector, though only after relatively lengthy antibiotic exposure. […] We then determined the relative fluorescence intensity—the ratio between the fluorescence intensities of the gentamicin-dosed cells and the gentamicin-free cells—for both strains for each culture duration.

[9] = tested on: multi-drug resistant E. coli ATCC BAA 2471; experiment: as above; format: cell-based; conditions: gentamicin 8 μg/mL, 20 μL bulk, 0-120 min at 37° C., EC PNA probe
Source text: as §3

reference E. coli = experiment: In-droplet single-cell 16S rRNA AST in spiked urine; format: cell-based; conditions: gentamicin 8 μg/mL, urine with 2×MH broth, 37° C. for 30, 15, 10 or 5 min

CC1(C)S[C@@H]2[C@H](NC(=O)[C@H](N)c3ccccc3)C(=O)N2[C@H]1C(=O)O [ampicillin]
reported resistance of the strain [1]: resistant

O=C(O)c1cn(C2CC2)c2cc(N3CCNCC3)c(F)cc2c1=O [ciprofloxacin]
resistance rate (uropathogenic E. coli): ≤ 31% | reported resistance of the strain [1]: resistant

EC probe: FAM-labeled PNA probe FAM-O-TCAATGAGCAAAGGT-KK targeting E. coli 16S rRNA, with Iowa Black DNA quencher IABk-AGTTACTCGT (chain 1: all peptide nucleic acid (PNA), 5' {FAM-O}; chain 2: DNA, 5' {IABk}, backbone and methylation of C not given here; PNA carries two C-terminal lysines)
probe fluorescence signal in the presence of target bacteria over blank urine background [2]: significantly higher signal | Tm [3]: 76.3 °C

UNI probe: Alexa546-labeled pan-bacteria PNA probe GCTGCCTCCCGTAGGA-K-Alexa546 targeting eubacterial 16S rRNA, with DNA quencher GGAGGGCATCCT-IABk (PNA, lysine-Alexa546, DNA quencher strand, chemistry not fully specified)
probe fluorescence signal in the presence of target bacteria over blank urine background [4]: successfully detects | probe fluorescence signal in the presence of target bacteria over blank urine background [5]: successfully detects | probe fluorescence signal in the presence of target bacteria over blank urine background [2]: successfully detects | probe fluorescence signal in the presence of target bacteria over blank urine background [6]: successfully detects | Tm [3]: 80.5 °C

gentamicin
normalized positive droplet population [7]: comparatively higher and relatively unchanging normalized positive droplet population | normalized positive droplet population versus antibiotic concentration (E. coli cells; E. coli in MH broth, droplets): decreases as the concentration of gentamicin increases | frequency of positive droplets (E. coli cells; gentamicin 128 μg/mL, 30 min culture/antibiotic exposure, MH broth, 4×10^7 CFU/mL E. coli, no-antibiotic control 7.70%): 3.12% | culture/antibiotic exposure needed to see or differentiate the effect on susceptible vs resistant E. coli ([8]; bulk format, vs multi-drug resistant E. coli BAA 2471): > 90 min and 90 min | relative fluorescence intensity (gentamicin-dosed cells / gentamicin-free cells) ([8]; gentamicin 8 μg/mL, 20 μL bulk, 0-120 min at 37° C., EC PNA probe): significantly lower relative fluorescence intensities | relative fluorescence intensity (gentamicin-dosed cells / gentamicin-free cells) [9]: ~1 | reported resistance of the strain [1]: resistant | normalized positive droplet population (reference E. coli): decreasing normalized positive droplet population over increasing culture times
